# Data from patent publication US8703957B2 (Janssen Pharmaceutica NV, priority 2001, dated 2014).
# Legend:
# Assay type in all cases: in vivo
# [1] = system: Ascaris suum antigen-induced asthmatic response in conscious sheep; test: Ascaris suum antigen-induced asthmatic response in conscious sheep: specific lung resistance and airway hyperreactivity
# Description: The efficacy of Compound 2 for the treatment of asthma was evaluated in a validated model of Ascaris suum antigen-induced asthmatic response in conscious sheep (Abraham, W. M., Pharmacology of allergen-induced early and late airway responses and antigen-induced airway hyperresponsiveness in allergic sheep, Pulmonary Pharmacology, 1989, 2, 33-40).
# (§1) Baseline dose response curves to aerosol carbachol were obtained 1-3 days prior to antigen challenge. Baseline values of specific lung resistance (SRL) were obtained and the sheep were then given a specified amount (mg) of the test compound as an inhaled aerosol at a specified time before antigen challenge. Post drug measurements of SRL were obtained and the sheep were then challenged with Ascaris suum antigen. Measurements of SRL were obtained immediately after challenge, hourly from 1-6 h after challenge and on the half-hour from 6½-8 h after challenge. Measurements of SRL were obtained 24 h after challenge followed by a 24 h post-challenge with carbachol to measure airway hyperreactivity.
# Compound 2 was administered as an aerosol at 0.1 mg/Kg/dose, twice-a-day (BID) for three consecutive days, followed by a dose on day 4, 0.5 h prior to antigen challenge. Ascaris suum antigen challenge was given at the zero time point.
# [2] = system: inflammatory cell numbers in the broncho-alveolar lavage (BAL) fluid; test: Inflammatory cell counts in broncho-alveolar lavage (BAL) fluid of antigen-challenged sheep
# Description: as §1, with “hyperreactivity. […] Ascaris suum antigen challenge was given at the zero time point.” for “hyperreactivity.”
# [3] = system: inflammatory cell numbers in the broncho-alveolar lavage (BAL) fluid; test: as above; details: 1.0 mg/kg × 4 days, last dose 30 min prior to antigen challenge
# [4] = 8 h Post Antigen, 1.0 mg/kg × 4 days, last dose 30 min prior to antigen challenge
# [5] = 24 h Post Antigen, 1.0 mg/kg × 4 days, last dose 30 min prior to antigen challenge
# [6] = Baseline, 1.0 mg/kg × 4 days, last dose 30 min prior to antigen challenge
compound,measurement,setting,value
"CN(C(=O)c1cc2ccccc2cc1C(=O)C(c1cccc2ccccc12)P(=O)(O)O)C1CCN(C(=O)c2ccc3ccccc3c2)CC1 (stereo not shown) [Compound 2, [2-[3-[[methyl[1-(2-naphthalenylcarbonyl)-4-piperidinyl]amino]carbonyl]-2-naphthalenyl]-1-(1-naphthalenyl)-2-oxoethyl]-phosphonic acid]","early airway response (specific lung resistance, SRL)","[1]; 0-2 h after antigen challenge, aerosol 0.1 mg/Kg/dose BID for three days plus dose on day 4, 0.5 h prior to challenge, n=4 sheep/group, FIG. 1",dramatically reduced
same,"late airway response (specific lung resistance, SRL)","[1]; 6-8 h after antigen challenge, aerosol 0.1 mg/Kg/dose BID for three days plus dose on day 4, 0.5 h prior to challenge, n=4 sheep/group, FIG. 1",completely blocked
same,delayed airway hyperreactivity measured using carbachol challenge (PC 400),"[1]; 24 h post antigen challenge, FIG. 2",completely blocked
same,BAL Cell Count Lymphocytes,[2]; [4],4.16 ± 1.10 × 1000/mL
same,BAL Cell Count Neutrophils,[2]; [4],3.17 ± 0.65 × 1000/mL
same,BAL Cell Count Lymphocytes,[2]; [5],3.72 ± 0.77 × 1000/mL
same,BAL Cell Count Macrophages,[2]; [5],75.16 ± 2.71 × 1000/mL
same,BAL Cell Count Eosinophils,[2]; [6],0.00 × 1000/mL
same,BAL Cell Count Macrophages,[2]; [6],69.06 ± 1.97 × 1000/mL
same,BAL Cell Count Neutrophils,[2]; [6],12.66 ± 2.07 × 1000/mL
same,rise in inflammatory cell numbers in the broncho-alveolar lavage (BAL) fluid,"[2]; after antigen challenge, sheep, summary of Table 5",blocked
same,BAL Cell Count Eosinophils,[3]; 8 h Post Antigen,0.37 ± 0.32 × 1000/mL
same,BAL Cell Count Macrophages,[3]; 8 h Post Antigen,77.85 ± 2.36 × 1000/mL
same,BAL Cell Count Eosinophils,[3]; 24 h Post Antigen,0.04 ± 0.03 × 1000/mL
same,BAL Cell Count Neutrophils,[3]; 24 h Post Antigen,3.86 ± 0.95 × 1000/mL
same,BAL Cell Count Lymphocytes,[3]; Baseline,3.15 ± 0.79 × 1000/mL
